Read-outs that look alike come from different tables or passages of the source.
Key:
[1] = British Pat. No. 666,778; cited from earlier work
[2] = test system: ethanol ulcer; assay: Test C: Inhibition on ethanol ulcer; format: in vivo, male Sprague-Dawley rats; settings: Rattus norvegicus, 0.5 h; oral; rats; absolute ethanol 5 ml/kg 30 minutes after dosing
Procedure: Inhibition on ethanol ulcer
Five male Sprague-Dawley rats, aged 7 weeks and weighing about 200 g, were used per group for the study on ethanol ulcer after the fast for 24 hours.
Test compound was suspended in 0.1% methylcellulose aqueous solution, and the suspension (5 ml/kg) was orally given to each rat.
The control group was given a vehicle, i.e. 0.1% methylcellulose aqueous solution (5 ml/kg), alone in the same way.
Absolute ethanol (5 ml/kg) was orally administered 30 minutes after dosing with test compound, and one hour later, the rats were sacrificed and their stomachs were removed. The area of ulcers of each rat was measured. The mean area (mm^2) in the medicated group was compared with that in the control group.

[3] = test system: stress ulcer; assay: Test B: Inhibition on stress ulcer; format: in vivo, male Sprague-Dawley rats; settings: for ED50: Rattus norvegicus, read-out: ED50 (Test B, stress ulcer)
Procedure: Inhibition on stress ulcer
Five male Sprague-Dawley rats, aged 7 weeks and weighing about 200 g were used per group for the study on stress ulcer after the fast for 24 hours. Each animal was immobilized in a restrain cage and immersed to a level of the xiphoid in a water bath kept 22° C. The test compound suspended in 0.1% methylcellulose solution was administered orally (5 ml/kg) just before the immobilization. Seven hours later, the animals were sacrificed and their stomachs were removed. The stomach was then fixed with 2% formalin. The area of ulcers was measured for each animal. The mean area (mm^2) in the test animals was compared with that in the control animals.

[4] = test system: gastric secretion; assay: Test A: Gastric secretion in Heidenhain pouch dogs (tetragastrin-stimulated total acid output); format: in vivo, Beagle dogs; settings: Canis lupus familiaris, intravenous, tetragastrin 10 μg/kg/hr
Procedure: Gastric secretion in Heidenhain pouch dogs
Beagle dogs, weighing about 8-13 kg, were used for the study on gastric secretion. The animals were surgically provided with a vagally denervated Heidenhain pouch. One month or more later, the dogs were fasted overnight. Gastric secretion was stimulated by an intravenous infusion of tetragastrin (10 μg/kg/hr). Gastric samples were collected at 15 min intervals. After its volume was almost constant, test compound suspended in 0.1% methyl cellulose solution was injected intravenously (0.2 ml/kg). Acid concentration was determined by titrating an aliquot to pH 7.0 with 0.1N sodium hydroxide solution using automatic titration (Hiranuma RAT-11 Type). Total acid output was calculated by multiplying total volume of gastric samples by acid concentration, and percentage change of total acid output was calculated by comparing with predosing value of test compound.

[5] = Blood pressure monitored in spasmolytic activity test (cannula in femoral artery); format: in vivo, Mongrel dogs; settings: dogs
Procedure: (§1) Spasmolytic activity in vivo
(§2) Mongrel dogs were anesthetized with s.c. injection of morphine chloride (10 mg/kg) and urethane (1.5 g/kg). The abdomen was incised along the midline, and a ballon filled with water was introduced into the gastric antrum or jejunum. The spontaneous contraction of the gastric antrum and jejunum were continuously recorded through the balloon connected to a pressure transducer. The test drugs were given intravenously. The effect of the test drug is expressed as inhibitory percentage compared to the contractile magnitude obtained before the test drug. The blood pressure was also monitored with a pressure transducer through a cannula inserted in the femoral artery.

[6] = test system: jejunum; assay: Spasmolytic activity in vivo: spontaneous contraction of the jejunum; set-up: species or system Mongrel dogs; settings: dogs
Procedure: as §1, §2

[7] = test system: gastric antrum; assay: Spasmolytic activity in vivo: spontaneous contraction of the gastric antrum; set-up: species or system Mongrel dogs; settings: dogs
Procedure: as §1, §2

[8] = oral, rats, restraint and water immersion 22° C., 7 hours

Row | SMILES | ED50 [2] | ED50 [4] | Blood pressure change (gastric antrum) ([5]; 10 μg/Kg intravenous) | Blood pressure change (gastric antrum) ([5]; 100 μg/Kg intravenous) | Blood pressure change (jejunum) ([5]; 10 μg/Kg intravenous) | Blood pressure change (jejunum) ([5]; 100 μg/Kg intravenous) | Duration (jejunum) ([6]; 10 μg/Kg intravenous) | Inh. (jejunum) ([6]; 10 μg/Kg intravenous) | Duration (jejunum) ([6]; 100 μg/Kg intravenous) | Inh. (jejunum) ([6]; 100 μg/Kg intravenous) | Duration (gastric antrum) ([7]; 10 μg/Kg intravenous) | Inh. (gastric antrum) ([7]; 10 μg/Kg intravenous) | Duration (gastric antrum) ([7]; 100 μg/Kg intravenous) | Inh. (gastric antrum) ([7]; 100 μg/Kg intravenous) | further results
1 | CC(CN(C)C)C(C#N)(c1ccccc1)c1ccccn1 (stereo not drawn) [α-phenyl-α-(2-pyridyl)-4-(N,N-dimethylamino)-3-methylbutyronitrile] | – | – | – | – | – | – | – | – | – | – | – | – | – | – | antihistaminic activity [1]: possesses antihistaminic activity
2 | CN1CCN(CC(=O)N2c3ccccc3C(=O)Nc3cccnc32)CC1 [Gastrozepine] | 14.4 mg/kg | 0.03 mg/kg | – | – | – | – | – | – | – | – | – | – | – | – | ED50 [3, 8]: 36 mg/kg
3 | COC1CC(=C(c2cccs2)c2cccs2)C[N+](C)(C)C1 (centres unmarked) [Timepidium Bromide] | – | – | +4% | -19% | -3% | -24% | 30 min | 59% | > 60 min | 91% | 10 min | 55% | 30 min | 92% | –
4 | CC(C)N(CCC(C(N)=O)(c1ccccc1)c1ccccn1)C(C)C (stereo not drawn) [Disopyramide phosphate, α-phenyl-α-(2-pyridyl)-4-(N,N-diisopropylamino)butyramide] | – | – | – | +3% | – | +1% | – | – | 0 min | 4% | – | – | 10 min | 46% | ED50 (Test B, stress ulcer) [3, 8]: No Effect; Blood pressure change (gastric antrum) ([5]; 1000 μg/Kg intravenous): +5%; Blood pressure change (jejunum) ([5]; 1000 μg/Kg intravenous): +14%; Duration (jejunum) ([6]; 1000 μg/Kg intravenous): > 60 min; Inh. (jejunum) ([6]; 1000 μg/Kg intravenous): 85%; Duration (gastric antrum) ([7]; 1000 μg/Kg intravenous): 60 min; Inh. (gastric antrum) ([7]; 1000 μg/Kg intravenous): 88%
5 | CC(CC(C(N)=O)(c1ccccc1)c1ccccn1)N(C)C (centres unmarked) [Example 3, 4-(N,N-dimethylamino)-2-phenyl-2-(2-pyridyl)-valeramide] | 6.8 mg/kg | 0.27 mg/kg | -3% | -4% | -3% | -7% | 30 min | 70% | > 60 min | 93% | 60 min | 52% | 90 min | 95% | ED50 ([3]; po, 7 h): 2.7 mg/kg

Reference: patent US4564621A, “α-Aryl-α-pyridylalkanoic acid derivatives, process for preparation thereof and pharmaceutical composition comprising the same” (Fujisawa Pharmaceutical Co., Ltd., priority 1982, dated 1986)
